Experimental findings from publication PMC11089510 (Journal of Medicinal Chemistry, 2024) are described below.

In data set [1] the target is T1, NUDT5 (Homo sapiens, UniProt Q9UKK9). The experiment in a line: NUDT5 catalytic assay (AMP-Glo). To be noted: for NUDT5 inhibition: concentrations of up to 50 μM; for NUDT5 IC50: supplementary CSV. It is filed as biochemical. As for the experimental part: (§1) Inhibition activities of the compounds were determined using AMP-Glo system (Promega). The compounds were diluted from 50 μM to 0 μM in a final reaction containing 20 mM HEPES, 100 mM NaCl, 0.5 mM TCEP, 1 mM MgCl2, and 0.1% BSA, pH 7.4. […] The final DMSO concentration was 1% for all reactions. […] The reactions were further incubated with 4 μL of the detection solution for 1 h at rt. Luminescence signals were then measured in a PHERAstar FSX plate reader. Experiments were done in triplicate sets, and data were analyzed by GraphPad Prism 9. Inhibitor dose–response data were normalized to reactions containing vehicle only (1% v/v DMSO, 100% activity) and reactions containing 500 nM TH5427 (6) (1% v/v DMSO, 0% activity). Data are represented as the mean ± SD of two independent biological replicates.

A further data set deals with T2, recombinant human NUDT14 (Homo sapiens, UniProt O95848).
T2 sequence (O95848 1-222): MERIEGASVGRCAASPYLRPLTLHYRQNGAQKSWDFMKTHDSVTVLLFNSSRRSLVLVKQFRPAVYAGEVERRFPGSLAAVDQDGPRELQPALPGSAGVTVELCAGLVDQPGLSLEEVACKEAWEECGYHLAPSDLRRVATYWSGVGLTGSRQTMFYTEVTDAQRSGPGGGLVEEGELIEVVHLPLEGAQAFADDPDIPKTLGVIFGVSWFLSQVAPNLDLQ
The experiment in a line: NUDT14 catalytic assay (AMP-Glo). In kind it is biochemical. How it is done: as §1

Another data set deals with BT-474 cells. The experiment in a line: Cell viability assay (CellTiter-Glo). It is filed as cell-based. Particulars: Homo sapiens, 72 h of incubation. As for the experimental part: BT-474 cells were cultivated in DMEM containing 10% FBS at 37 °C and 5% CO2. […] Cells were trypsinized, counted, and diluted to 25,000 cells/mL in culture medium. 40 μL of cell suspension was seeded to each well, and plates were sealed with a breathable film and incubated for 72 h. Cell viability was determined using the CellTiter-Glo reagent following the manufacturer’s instructions (Promega). Luminescence signals were measured in a PHERAstar FS or FSX and analyzed by GraphPad Prism (v.9 or v.10). Data were normalized to DMSO.
Background: Cellular ATP, detected with luciferase, serves as a proxy for viable cell number.

In data set [2] the target is T3, purified human NUDT14 protein (Homo sapiens, UniProt O95848).
T3 construct: 6xHis tag followed by TEV site (N, cleaved yes); made in house; host or cells: Escherichia coli (DE3)
T3 sequence (O95848 1-222): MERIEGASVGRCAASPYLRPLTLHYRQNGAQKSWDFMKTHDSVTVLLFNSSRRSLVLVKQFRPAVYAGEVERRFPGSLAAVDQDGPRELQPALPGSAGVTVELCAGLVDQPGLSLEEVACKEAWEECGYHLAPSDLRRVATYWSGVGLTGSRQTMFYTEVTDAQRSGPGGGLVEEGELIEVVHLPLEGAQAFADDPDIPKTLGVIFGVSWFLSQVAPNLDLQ
The experiment in a line: biochemical.

A further data set deals with NUDT1 (Homo sapiens, UniProt P36639). The experiment in a line: biochemical.
A further data set concerns the target NUDT12 (Homo sapiens, UniProt Q9BQG2). The experiment in a line: biochemical.
In another data set the target is T4, NUDT15 (Homo sapiens, UniProt Q9NV35).
T4 sequence (Q9NV35 1-164): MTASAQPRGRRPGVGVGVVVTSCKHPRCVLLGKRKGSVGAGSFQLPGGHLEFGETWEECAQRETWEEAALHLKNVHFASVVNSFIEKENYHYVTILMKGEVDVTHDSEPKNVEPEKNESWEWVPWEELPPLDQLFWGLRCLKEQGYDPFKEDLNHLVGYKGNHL
The experiment in a line: biochemical.

The next data set has as its target NUDT16 (Homo sapiens, UniProt Q96DE0). The experiment in a line: biochemical.
The target in a further data set is NUDT16L1 (Homo sapiens, UniProt Q9BRJ7). The experiment in a line: biochemical.
Chain of NUDT16L1 (Q9BRJ7 whole entry): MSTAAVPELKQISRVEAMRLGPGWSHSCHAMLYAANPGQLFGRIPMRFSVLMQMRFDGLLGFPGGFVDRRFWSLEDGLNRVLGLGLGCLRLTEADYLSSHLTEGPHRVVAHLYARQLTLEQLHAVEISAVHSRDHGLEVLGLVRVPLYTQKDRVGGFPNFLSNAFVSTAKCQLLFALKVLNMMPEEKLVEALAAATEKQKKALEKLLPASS
For the next data set, the target named is T5, NUDT17 (Homo sapiens, UniProt P0C025).
T5 sequence (P0C025 1-328): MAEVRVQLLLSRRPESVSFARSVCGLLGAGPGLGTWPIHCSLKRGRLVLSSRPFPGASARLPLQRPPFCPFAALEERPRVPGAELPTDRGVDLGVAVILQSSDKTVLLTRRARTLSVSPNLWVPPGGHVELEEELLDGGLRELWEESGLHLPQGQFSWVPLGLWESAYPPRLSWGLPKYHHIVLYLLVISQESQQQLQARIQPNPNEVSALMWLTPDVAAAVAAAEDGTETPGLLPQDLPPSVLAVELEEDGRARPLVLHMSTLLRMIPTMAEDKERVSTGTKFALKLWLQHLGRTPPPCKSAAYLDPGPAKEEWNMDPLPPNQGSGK
The experiment in a line: biochemical.

Another data set concerns the target T6, NUDT18 (Homo sapiens, UniProt Q6ZVK8).
T6 sequence (Q6ZVK8 1-323): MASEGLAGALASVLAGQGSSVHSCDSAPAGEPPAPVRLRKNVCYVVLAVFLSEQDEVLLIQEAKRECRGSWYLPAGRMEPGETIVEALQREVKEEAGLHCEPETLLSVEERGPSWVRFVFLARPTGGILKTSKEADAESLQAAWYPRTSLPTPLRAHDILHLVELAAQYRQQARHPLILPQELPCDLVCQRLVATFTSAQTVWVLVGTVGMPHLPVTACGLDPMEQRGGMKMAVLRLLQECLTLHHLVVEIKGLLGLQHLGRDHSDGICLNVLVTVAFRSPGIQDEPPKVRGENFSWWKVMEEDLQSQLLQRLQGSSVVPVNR
The experiment in a line: biochemical.

The target in another data set is NUDT7 (Homo sapiens, UniProt P0C024). The experiment in a line: biochemical.
Chain of NUDT7 (P0C024 whole entry): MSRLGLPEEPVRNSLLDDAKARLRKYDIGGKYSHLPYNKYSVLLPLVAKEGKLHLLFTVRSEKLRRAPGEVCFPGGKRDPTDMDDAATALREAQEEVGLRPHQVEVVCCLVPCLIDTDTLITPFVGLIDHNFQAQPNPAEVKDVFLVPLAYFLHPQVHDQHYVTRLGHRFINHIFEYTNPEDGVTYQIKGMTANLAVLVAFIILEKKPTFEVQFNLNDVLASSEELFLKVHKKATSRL
For a further data set, the target named is T7, NUDT9 (Homo sapiens, UniProt Q9BW91).
T7 sequence (Q9BW91 1-350): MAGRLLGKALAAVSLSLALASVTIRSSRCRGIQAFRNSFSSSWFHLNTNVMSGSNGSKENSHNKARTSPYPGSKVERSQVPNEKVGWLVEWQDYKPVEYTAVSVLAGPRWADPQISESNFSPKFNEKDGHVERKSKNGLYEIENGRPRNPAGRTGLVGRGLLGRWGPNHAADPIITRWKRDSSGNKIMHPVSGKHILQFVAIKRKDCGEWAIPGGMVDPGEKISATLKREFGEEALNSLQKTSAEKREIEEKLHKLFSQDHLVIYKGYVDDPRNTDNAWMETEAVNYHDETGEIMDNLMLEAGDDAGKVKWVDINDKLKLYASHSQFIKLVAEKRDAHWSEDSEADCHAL
The experiment in a line: biochemical.

The target of data set [3] is T1, NUDT5. The experiment in a line: biochemical. On the set-up: 6xHis tag followed by TEV site (N, cleaved yes); made in house; host or cells: Escherichia coli (DE3).
Data set [4] addresses NanoLuc-NUDT5 in HEK293 cells (Homo sapiens, UniProt Q9UKK9). The experiment in a line: NUDT5 live-cell NanoBRET target engagement assay. It is filed as cell-based. To be noted: 2.5 nM CBH-004 tracer, 2 h. How it is done:
Donor and acceptor signals were measured in a PHERAstar FSX or FS plate reader and analyzed by GraphPad Prism (v.9 or v.10). […] Data were then normalized to DMSO.
For orientation: BRET reads energy transfer from a luciferase to a nearby fluorophore.

In data set [5] the target is HiBiT-NUDT14 in intact HEK293 cells (Homo sapiens, UniProt O95848). The experiment in a line: HiBiT-NUDT14 cellular thermal shift assay (CETSA). In kind it is cell-based. A general note: The HiBiT peptide binds its large partner to form an active luciferase.
Method: The Nano-Glo HiBiT lytic detection system was used following the manufacturer’s instructions (Promega). In brief, 400,000 HEK293 cells/mL were reverse-transfected with N-terminal HiBiT tagged NUDT14 using FuGENE transfection reagent (Promega). After 24 h of incubation, cells were trypsinized and resuspended at 400,000 cells/mL in assay medium. The cells were divided into compound and untreated (DMSO) groups and treated accordingly. Ten μL of cells were seeded into each well in a 384-well white PCR plate and incubated for 1 h. After incubation, the samples were heated in a PCR thermocycler at the desired temperature gradient. The plate was allowed to stand for 5 min at rt, and 10 μL of Nano-Glo HiBiT lytic mix was added into each well. The signals were measured in a PHERAstar FSX and analyzed by GraphPad Prism (v.9 or v.10).
The target of another data set is endogenous NUDT5 (Homo sapiens, UniProt Q9UKK9). The experiment in a line: Affinity pull-down with Western blot for NUDT5. It is filed as binding. Particulars: affinity matrix, cell lysate.
Data set [6] deals with the molecule itself. The experiment in a line: crystal structure; NUDT14 (20 mg/mL) cocrystallised with compound 9 at a molar ratio of 1:5; 0.2 M MgCl2, 0.1 M bis-tris pH 6.5, 25% PEG3350; sitting drop, 4 °C; dimer of chains A and B.
[7] abbreviates: read-out: NUDT5 IC50, AMP-Glo, 1 nM NUDT5, 10 μM ADPr, 20 min, rt.
[8] abbreviates: 1 nM NUDT14, 10 μM ADPr, 1 h, rt.

Where two headings read alike, the source gives them in different places.

Chain of NUDT16 (Q96DE0 whole entry): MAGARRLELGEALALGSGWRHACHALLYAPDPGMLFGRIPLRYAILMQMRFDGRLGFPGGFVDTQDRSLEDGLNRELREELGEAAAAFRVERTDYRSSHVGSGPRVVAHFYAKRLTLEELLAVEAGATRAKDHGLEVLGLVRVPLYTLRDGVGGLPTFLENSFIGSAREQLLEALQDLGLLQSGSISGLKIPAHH
Chain of NUDT12 (Q9BQG2 whole entry): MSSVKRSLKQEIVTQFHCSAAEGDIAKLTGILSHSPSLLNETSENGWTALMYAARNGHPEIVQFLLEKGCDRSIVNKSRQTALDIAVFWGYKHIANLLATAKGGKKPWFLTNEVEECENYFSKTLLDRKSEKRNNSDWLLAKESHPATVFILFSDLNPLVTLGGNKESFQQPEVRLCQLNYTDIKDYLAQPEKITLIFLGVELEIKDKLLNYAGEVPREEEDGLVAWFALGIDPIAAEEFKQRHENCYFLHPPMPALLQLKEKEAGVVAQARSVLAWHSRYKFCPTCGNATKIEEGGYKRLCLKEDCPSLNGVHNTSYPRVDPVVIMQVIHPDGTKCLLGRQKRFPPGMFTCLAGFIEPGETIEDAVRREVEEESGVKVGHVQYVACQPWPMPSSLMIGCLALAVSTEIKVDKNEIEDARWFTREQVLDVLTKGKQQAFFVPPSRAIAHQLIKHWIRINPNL
Method for endogenous NUDT5: When reaching about 80% confluency, cells were harvested, washed with PBS, and frozen at −80 °C. Lysates were generated by adding 3× pellet volume of Buffer A (50 mM tris pH 7.5, 0.8% v/v NP-40, 5% v/v glycerol, 1.5 mM MgCl2, 100 mM NaCl, 25 mM NaF, 1 mM Na3VO4, 1 mM PMSF, 1 mM DTT, 10 μg/mL TLCK, 1 μg/mL Leupeptin, 1 μg/mL Aprotinin, 1 μg/mL soybean trypsin) supplemented with 1 μL/mL of benzonase. To facilitate lysis, crude lysate was drawn 10 times with a needle and incubated for 30 min on ice before clearing by centrifugation.
Affinity matrices were washed 4 times with 1 mL Buffer A, and proteins were eluted 2× with 50 μL of 2× Laemmli buffer containing 25 mM DTT in PBS for 5 min at 95 °C.

As for `C=CC(=O)N1CCC[C@@H](n2nc(-c3ccc(Oc4ccccc4)cc3)c3c(N)ncnc32)C1` [Compound 1, ibrutinib, reference compound], the IC50 at NUDT5 [1] (setting [7]) worked out at 837 ± 329 nM; at recombinant human NUDT14 (setting [8]) it was 990 ± 110 nM; in the data set on BT-474 cells, 27 ± 11 nM.
On to `C=CC(=O)N1CCC[C@@H](n2nc(-c3ccc(Oc4ccccc4)cc3)c3c(N)ncnc32)C1` [Compound 1, ibrutinib], for which the Kd in data set [2] was 1900 ± 500 nM; at NUDT1 it was 3500 ± 280 nM; on NUDT12, over 100000 nM; on NUDT15, over 100000 nM; on NUDT16 it was over 100000 nM; on NUDT16L1, over 100000 nM. Further, the Kd at NUDT17 was over 100000 nM; at NUDT18, over 100000 nM; on NUDT7, over 100000 nM; on NUDT9, over 100000 nM; on NUDT5 [3], 209 ± 62 nM.
As for `CC#CC(=O)N1CCC[C@H]1c1nc(-c2ccc(C(=O)Nc3ccccn3)cc2)c2c(N)nccn12` [Compound 2, acalabrutinib, reference compound], the NUDT5 inhibition entry at NUDT5 [1] was “did not show any inhibition”. In addition, at NUDT5 [1] (AMP-Glo), the “NUDT5 IC50” value is on record as “not active”.
In the case of `CC#CC(=O)N[C@H]1CCCN(c2c(F)cc(C(N)=O)c3[nH]c(C)c(C)c23)C1` [Compound 3, branebrutinib, reference compound], at NUDT5 [1], the NUDT5 inhibition result is listed as “did not show any inhibition”. Moreover, on NUDT5 [1] (AMP-Glo), the “NUDT5 IC50” value is given as “not active”.
`Cn1c(=O)c2c(nc(N3CCNCC3)n2Cc2nnc(-c3ccc(Cl)c(Cl)c3)o2)n(C)c1=O` [Compound 6, TH5427]: the concentration giving a half-maximal response (EC50) in data set [4] is 4 ± 1 nM. The “NUDT14 stabilisation compared to DMSO” value in data set [5] is reported as “does not stabilise NUDT14”.
As to `Cn1c(=O)c2c(nc(N3CCN(CCCCN)CC3)n2Cc2nnc(-c3ccc(Cl)c(Cl)c3)o2)n(C)c1=O.O=C(O)C(F)(F)F` [Compound 7, 4-(4-(7-((5-(3,4-Dichlorophenyl)-1,3,4-oxadiazol-2-yl)methyl)-1,3-dimethyl-2,6-dioxo-2,3,6,7-tetrahydro-1H-purin-8-yl)piperazin-1-yl)butan-1-aminium Trifluoroacetate], the “binding to endogenous NUDT5 (pull-down, Western blot)” value on endogenous NUDT5 is recorded as “retained binding”.
`Cn1nc(-c2ccc(Oc3ccccc3)cc2)c2c(N)ncnc21` [Compound 10, 1-Methyl-3-(4-phenoxyphenyl)-1H-pyrazolo[3,4-d]pyrimidin-4-amine]: the IC50 on recombinant human NUDT14 (setting [8]) was 263 ± 31 nM.
Take `Nc1ncnc2[nH]nc(-c3ccc(Oc4ccccc4)cc3)c12` [Compound 11, 3-(4-Phenoxyphenyl)-1H-pyrazolo[3,4-d]pyrimidin-4-amine]: the IC50 on recombinant human NUDT14 (setting [8]) is 519 ± 84 nM.
Turning to `C=CC(=O)N1CC=C(c2nn(C3CCN(C)CC3)c3ncnc(N)c23)CC1` [Compound 12, 1-(4-(4-Amino-1-(1-methylpiperidin-4-yl)-1H-pyrazolo[3,4-d]pyrimidin-3-yl)-3,6-dihydropyridin-1(2H)-yl)prop-2-en-1-one], the IC50 at NUDT5 [1] (setting [7]) and at recombinant human NUDT14 (setting [8]) was over 50000 nM throughout. In addition, the “NUDT5 IC50” value at NUDT5 [1] (AMP-Glo) is listed as “not active”. Also, the “NUDT14 IC50” value at recombinant human NUDT14 (supplementary CSV) is reported as “not active”.
For `C=CC(=O)N1CCC=C(c2nn(C3CCN(C)CC3)c3ncnc(N)c23)C1` [Compound 13, 1-(5-(4-Amino-1-(1-methylpiperidin-4-yl)-1H-pyrazolo[3,4-d]pyrimidin-3-yl)-3,6-dihydropyridin-1(2H)-yl)prop-2-en-1-one], the IC50 on NUDT5 [1] is over 50000 nM; on recombinant human NUDT14 (setting [8]), 3720 ± 190 nM. Also, the “NUDT5 IC50” value at NUDT5 [1] (AMP-Glo) is on record as “not active”.
Take `C=CC(=O)NCc1ccc(-c2nn(C3CCN(C)CC3)c3ncnc(N)c23)cc1` [Compound 14, N-(4-(4-Amino-1-(1-methylpiperidin-4-yl)-1H-pyrazolo[3,4-d]pyrimidin-3-yl)benzyl)acrylamide]: the IC50 at recombinant human NUDT14 (setting [8]) is 1640 ± 140 nM.
As for `C=CC(=O)N1CCC(c2nn(C3CCN(C)CC3)c3ncnc(N)c23)CC1` [Compound 15, 1-(4-(4-Amino-1-(1-methylpiperidin-4-yl)-1H-pyrazolo[3,4-d]pyrimidin-3-yl)piperidin-1-yl)prop-2-en-1-one], the IC50 on NUDT5 [1] and at recombinant human NUDT14 (setting [8]) was over 50000 nM each time. The “NUDT5 IC50” value on NUDT5 [1] (AMP-Glo) is “not active”. The “NUDT14 IC50” value at recombinant human NUDT14 (setting [8]) was “inactive”.

B1: NUDT14 (enzyme, human, UniProt O95848 1-222, looked up)
chain: MERIEGASVGRCAASPYLRPLTLHYRQNGAQKSWDFMKTHDSVTVLLFNSSRRSLVLVKQFRPAVYAGEVERRFPGSLAAVDQDGPRELQPALPGSAGVTVELCAGLVDQPGLSLEEVACKEAWEECGYHLAPSDLRRVATYWSGVGLTGSRQTMFYTEVTDAQRSGPGGGLVEEGELIEVVHLPLEGAQAFADDPDIPKTLGVIFGVSWFLSQVAPNLDLQ
B1: the “stoichiometry N” value in [6] came to 2.

For orientation: IC50 means the point on the concentration scale where inhibition reaches its midpoint. For orientation: Kd means the free concentration of one partner at which half of the binding sites on the other are occupied at equilibrium, for simple one-to-one binding. The EC50 is the midpoint of the concentration-response curve. Broadly, the stoichiometry N is the number of molecules, sites or subunits per partner or assembly.
